Measured values as given in patent publication US7868185B2, “Shp-2 inhibitors and pharmaceutical compositions comprising them” (Max-Delbruck-Centrum fur Molekulare Medizin, priority 2005, dated 2011).

Tests used:
[1] = tested on: phosphorylation of MAP kinases Erk1 and Erk2; experiment: HGF/SF phosphorylation assay (MDCK); format: cell-based, canine; details: MDCK cells, HGF/SF stimulation, 5, 10, 20 μM, dose dependant
Experimental: MDCK cells are seeded at 0.15×10E6 cells/ml (1 ml/well) in a 12 well microtiter plate in DMEM/10% FBS and incubated over night at 37° C./5% CO2. Medium is exchanged against DMEM/1% FBS plus 5, 10 or 20 μM (final concentration) compound, and the cells are incubated for 16 h at 37° C./5% CO2. Medium is exchanged against DMEM (without serum) plus 5, 10 or 20 μM compound (final DMSO concentration less than 1%), and the cells are incubated for 2 h at 37° C./5% CO2. Medium is exchanged against DMEM (without serum) plus 5, 10 or 20 μM compound (final DMSO concentration less than 1%) plus 10 ng/ml HGF/SF, and the cells are incubated for 6 h at 37° C./5% CO2. […] Proteins on the blot are analyzed by antibodies against p42/p44 MAP kinase (Erk1/Erk2) (Cell Signaling Technology, Inc., Beverly, USA) and phospho-Erk1/Erk2 (Cell Signaling Technology, Inc., Beverly, USA).
The binding of the antibodies to the MAP kinases on the nitrocellulose was detected by incubation with secondary goat-anti-rabbit-antibodies coupled to horse radish peroxidase (Jackson ImmunoResearch Laboratories, Soham, UK) and subsequent reaction with ECL reagents (Western Lightning™, PerkinElmer Life Sciences, Inc. Boston, USA) and X-ray film exposure (X-OMAT™, Kodak GmbH, Stuttgart, Germany). […]

[2] = tested on: phosphorylation of MAP kinases Erk1 and Erk2; experiment: HGF/SF phosphorylation assay (NCI-H661); format: cell-based, human; details: NCI-H661 cells (N58S in SHP2/PTPN11), HGF/SF stimulation, dose dependant
Experimental: Typically, human tumor cells (e.g. NCI-H661) were seeded at 0.25×10E6 cells/ml (1 ml/well) in a 6 well microtiter plate in RPMI/10% FBS and incubated over night at 37° C./5% CO2. Medium is exchanged against RPMI/1% FBS plus 5, 10 or 20 μM (final concentration) compound, and the cells were incubated for 20 h at 37° C./5% CO2. Medium was exchanged against RPMI (without serum) plus 5, 10 or 20 μM compound (final DMSO concentration less than 1%), and the cells were incubated for 4 h at 37° C./5% CO2. Medium was exchanged against DMEM (without serum) plus 5, 10 or 20 μM compound (final DMSO concentration less than 1%) plus 10 ng/ml HGF/SF, and the cells were incubated for 4 h at 37° C./5% CO2. […] Proteins on the blot were analyzed by antibodies against p42/p44 MAP kinase (Erk1/Erk2) (Cell Signaling Technology, Inc., Beverly, USA) and phospho-Erk1/Erk2 (Cell Signaling, Technology, Inc., Beverly, USA). The binding of the antibodies to the MAP kinases on the nitrocellulose was detected by incubation with secondary goat-anti-rabbit-antibodies coupled to horse radish peroxidase (Jackson ImmunoResearch Laboratories, Soham, UK) and subsequent reaction with ECL reagents (Western Lightning™, PerkinElmer Life Sciences, Inc. Boston, USA) and X-ray film exposure (X-OMAT™, Kodak GmbH, Stuttgart, Germany).

Met = Met (Homo sapiens, UniProt P08581); details: in vitro; cited from earlier work
Met, sequence (P08581 25-1390): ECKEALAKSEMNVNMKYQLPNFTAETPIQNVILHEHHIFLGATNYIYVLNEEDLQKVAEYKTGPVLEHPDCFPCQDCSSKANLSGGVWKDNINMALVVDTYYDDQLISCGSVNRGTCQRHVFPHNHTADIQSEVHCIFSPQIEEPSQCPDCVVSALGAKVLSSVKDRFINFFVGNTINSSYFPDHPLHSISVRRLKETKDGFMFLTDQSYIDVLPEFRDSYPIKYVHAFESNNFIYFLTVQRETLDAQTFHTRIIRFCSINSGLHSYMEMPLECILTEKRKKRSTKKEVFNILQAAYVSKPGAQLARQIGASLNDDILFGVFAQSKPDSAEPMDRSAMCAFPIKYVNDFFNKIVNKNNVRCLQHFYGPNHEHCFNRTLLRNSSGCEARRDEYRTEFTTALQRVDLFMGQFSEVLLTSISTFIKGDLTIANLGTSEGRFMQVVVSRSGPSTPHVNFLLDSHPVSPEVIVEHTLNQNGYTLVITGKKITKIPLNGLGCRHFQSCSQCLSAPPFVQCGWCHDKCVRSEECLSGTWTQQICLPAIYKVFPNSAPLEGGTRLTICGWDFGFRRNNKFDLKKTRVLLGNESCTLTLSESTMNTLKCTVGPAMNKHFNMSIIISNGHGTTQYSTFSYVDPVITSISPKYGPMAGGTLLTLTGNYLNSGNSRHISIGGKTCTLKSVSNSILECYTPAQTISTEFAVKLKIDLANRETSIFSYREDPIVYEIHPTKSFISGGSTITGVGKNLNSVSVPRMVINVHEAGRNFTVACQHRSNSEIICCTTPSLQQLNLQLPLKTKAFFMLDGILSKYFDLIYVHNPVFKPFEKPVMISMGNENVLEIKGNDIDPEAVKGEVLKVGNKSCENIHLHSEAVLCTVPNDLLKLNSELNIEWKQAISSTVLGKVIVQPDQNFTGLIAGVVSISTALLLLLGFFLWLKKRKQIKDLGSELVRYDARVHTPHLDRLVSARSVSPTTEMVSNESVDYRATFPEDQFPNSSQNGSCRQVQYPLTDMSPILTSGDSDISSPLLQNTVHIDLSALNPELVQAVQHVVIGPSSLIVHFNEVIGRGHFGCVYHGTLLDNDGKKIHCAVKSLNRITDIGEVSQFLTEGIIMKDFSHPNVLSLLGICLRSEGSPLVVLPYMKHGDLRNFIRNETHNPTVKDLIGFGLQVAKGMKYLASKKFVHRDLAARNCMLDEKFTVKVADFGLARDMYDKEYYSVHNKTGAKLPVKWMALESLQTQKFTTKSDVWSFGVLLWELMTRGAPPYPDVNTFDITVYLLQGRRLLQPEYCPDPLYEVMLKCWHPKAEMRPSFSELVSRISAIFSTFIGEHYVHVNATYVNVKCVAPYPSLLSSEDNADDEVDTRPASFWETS

HGF induced scattering = details: in vitro; cited from earlier work
[3] = earlier experiments; cited from earlier work

Row | sustained MAP kinase phosphorylation (P-Erk1/Erk1) [1] | Compound | sustained MAP kinase phosphorylation [2] | Met autophosphorylation (Met) | HGF induced scattering (HGF induced scattering) | antitumor activity in vivo [3]
1 | inhibited | O=C1/C(=N\Nc2ccc(S(=O)(=O)O)cc2)C(c2ccc([N+](=O)[O-])cc2)=NN1c1ccccc1 [II-1, 4-(2-(3-(4-nitrophenyl)-5-oxo-1-phenyl-1,5-dihydro-4H-pyrazol-4-ylidene)hydrazino)-benzenesulfonic acid] | inhibited | – | – | –
2 | – | COC(=O)[C@@]1(O)C[C@H]2O[C@]1(C)n1c3ccccc3c3c4c(c5c6ccccc6n2c5c31)C(=O)NC4 [Compound K252a] | – | inhibits | inhibits | no antitumor activity
